Source: US20220046923A1, “HERBICIDAL CINNOLINIUM COMPOUNDS” (SYNGENTA CROP PROTECTION AG, priority 2018, published 2022)

What was measured:
Assay in all cases: Post-emergence efficacy, glasshouse spray test
Assay type in all cases: in vivo
[1] = tested on: Amaranthus palmeri (AMAPA); conditions: evaluated after 13 days; for pest or weed control at 1000 g/ha / pest or weed control at 500 g/ha: Amaranthus palmeri, post-emergence, 312 h, read-out: Control of weed species AMAPA after post-emergence application (100=total damage to plant; 0=no damage to plant); for pest or weed control at 1000 g/ha: application rate 1000 g/Ha
Protocol: (§1) Seeds of a variety of test species were sown in standard soil in pots. After cultivation for 14 days (post-emergence) under controlled conditions in a glasshouse (at 24/16° C., day/night; 14 hours light; 65% humidity), the plants were sprayed with an aqueous spray solution derived from the dissolution of the technical active ingredient formula (I) in a small amount of acetone and a special solvent and emulsifier mixture referred to as IF50 (11.12% Emulsogen EL360 TM+44.44% N-methylpyrrolidone+44.44% Dowanol DPM glycol ether), to create a 50 g/l solution which was then diluted to required concentration using 0.25% or 1% Empicol ESC70 (Sodium lauryl ether sulphate)+1% ammonium sulphate as diluent. The test plants were then grown in a glasshouse under controlled conditions (at 24/16° C., day/night; 14 hours light; 65% humidity) and watered twice daily. After 13 days the test was evaluated (100=total damage to plant; 0=no damage to plant).
(§2) Ipomoea hederacea (IPOHE), Euphorbia heterophylla (EPHHL), Chenopodium album (CHEAL), Amaranthus palmeri (AMAPA), Lolium perenne (LOLPE), Digitaria sanguinalis (DIGSA), Eleusine indica (ELEIN), Echinochloa crus-galli (ECHCG), Setaria faberi (SETFA)

[2] = tested on: Chenopodium album (CHEAL); conditions: evaluated after 13 days; for pest or weed control at 1000 g/ha / pest or weed control at 500 g/ha: Chenopodium album, post-emergence, 312 h, read-out: Control of weed species CHEAL after post-emergence application (100=total damage to plant; 0=no damage to plant); for pest or weed control at 1000 g/ha: application rate 1000 g/Ha
Protocol: as §1, §2

[3] = tested on: Digitaria sanguinalis (DIGSA); conditions: evaluated after 13 days; for pest or weed control at 1000 g/ha / pest or weed control at 500 g/ha: Digitaria sanguinalis, post-emergence, 312 h, read-out: Control of weed species DIGSA after post-emergence application (100=total damage to plant; 0=no damage to plant); for pest or weed control at 1000 g/ha: application rate 1000 g/Ha
Protocol: as §1, §2

[4] = tested on: Echinochloa crus-galli (ECHCG); conditions: evaluated after 13 days; for pest or weed control at 1000 g/ha / pest or weed control at 500 g/ha: Echinochloa crus-galli, post-emergence, 312 h, read-out: Control of weed species ECHCG after post-emergence application (100=total damage to plant; 0=no damage to plant); for pest or weed control at 1000 g/ha: application rate 1000 g/Ha
Protocol: as §1, §2

Eleusine indica (ELEIN) = conditions: evaluated after 13 days; for pest or weed control at 1000 g/ha / pest or weed control at 500 g/ha: Eleusine indica, post-emergence, 312 h, read-out: Control of weed species ELEIN after post-emergence application (100=total damage to plant; 0=no damage to plant); for pest or weed control at 1000 g/ha: application rate 1000 g/Ha
Protocol: as §1, §2

[5] = tested on: Euphorbia heterophylla (EPHHL); conditions: evaluated after 13 days; for pest or weed control at 1000 g/ha / pest or weed control at 500 g/ha: Euphorbia heterophylla, post-emergence, 312 h, read-out: Control of weed species EPHHL after post-emergence application (100=total damage to plant; 0=no damage to plant); for pest or weed control at 1000 g/ha: application rate 1000 g/Ha
Protocol: as §1, §2

[6] = tested on: Ipomoea hederacea (IPOHE); conditions: evaluated after 13 days; for pest or weed control at 1000 g/ha / pest or weed control at 500 g/ha: Ipomoea hederacea, post-emergence, 312 h, read-out: Control of weed species IPOHE after post-emergence application (100=total damage to plant; 0=no damage to plant); for pest or weed control at 1000 g/ha: application rate 1000 g/Ha
Protocol: as §1, §2

Lolium perenne (LOLPE) = conditions: evaluated after 13 days; for pest or weed control at 1000 g/ha / pest or weed control at 500 g/ha: Lolium perenne, post-emergence, 312 h, read-out: Control of weed species LOLPE after post-emergence application (100=total damage to plant; 0=no damage to plant); for pest or weed control at 1000 g/ha: application rate 1000 g/Ha
Protocol: as §1, §2

Setaria faberi (SETFA) = conditions: evaluated after 13 days; for pest or weed control at 1000 g/ha / pest or weed control at 500 g/ha: Setaria faberi, post-emergence, 312 h, read-out: Control of weed species SETFA after post-emergence application (100=total damage to plant; 0=no damage to plant); for pest or weed control at 1000 g/ha: application rate 1000 g/Ha
Protocol: as §1, §2

| SMILES | pest or weed control at 1000 g/ha [1] [%] | pest or weed control at 1000 g/ha [2] [%] | pest or weed control at 1000 g/ha [3] [%] | pest or weed control at 1000 g/ha [4] [%] | pest or weed control at 1000 g/ha (Eleusine indica (ELEIN)) [%] | pest or weed control at 1000 g/ha [5] [%] | pest or weed control at 1000 g/ha [6] [%] | pest or weed control at 1000 g/ha (Lolium perenne (LOLPE)) [%] | pest or weed control at 1000 g/ha (Setaria faberi (SETFA)) [%] | also measured |
| --- | --- | --- | --- | --- | --- | --- | --- | --- | --- | --- |
| O=S(=O)([N-]CC[n+]1ccc2ccccc2n1)C(F)(F)F [Compound A19, 2-cinnolin-2-ium-2-ylethyl(trifluoromethylsulfonyl)azanide] | 10 | 10 | 10 | 10 | 0 | 20 | 30 | 0 | 10 | – |
| O=S(=O)([O-])CC[n+]1ccc2cccc(C(F)(F)F)c2n1 [Compound A95] | 40 | 50 | 10 | 10 | 10 | 50 | 10 | 0 | 10 | – |
| COC(=O)c1ccc2cc[n+](CCS(=O)(=O)[O-])nc2c1 [Compound A108] | – | – | – | – | – | – | – | – | – | pest or weed control at 500 g/ha ([1]; application rate 500 g/Ha): 20%; pest or weed control at 500 g/ha ([2]; application rate 500 g/Ha): 40%; pest or weed control at 500 g/ha ([3]; application rate 500 g/Ha): 70%; pest or weed control at 500 g/ha ([4]; application rate 500 g/Ha): 20%; pest or weed control at 500 g/ha (Eleusine indica (ELEIN); application rate 500 g/Ha): 30%; pest or weed control at 500 g/ha ([5]; application rate 500 g/Ha): 50%; pest or weed control at 500 g/ha ([6]; application rate 500 g/Ha): 10%; pest or weed control at 500 g/ha (Lolium perenne (LOLPE); application rate 500 g/Ha): 10%; pest or weed control at 500 g/ha (Setaria faberi (SETFA); application rate 500 g/Ha): 10% |
| CS(=O)(=O)NC(=O)C[n+]1ccc2ccccc2n1 [Compound A15, 2-cinnolin-2-ium-2-yl-N-methylsulfonyl-acetamide bromide] | 90 | 80 | 70 | 40 | 80 | 90 | 80 | 60 | 60 | – |
| COC(=O)C[n+]1ccc2ccccc2n1 [Compound A1, methyl 2-cinnolin-2-ium-2-ylacetate bromide] | 100 | 60 | 70 | 70 | 100 | 90 | 50 | 40 | 60 | – |
| O=C([O-])C[C@H](O)C[n+]1ccc2ccccc2n1 [Compound A74, (3S)-4-cinnolin-2-ium-2-yl-3-hydroxy-butanoate] | 0 | 0 | 0 | 0 | 0 | 10 | 10 | 0 | 0 | – |
| O=S(=O)([O-])CC[n+]1ccc2cc(C(F)(F)F)ccc2n1 [Compound A98] | – | – | – | – | – | – | – | – | – | pest or weed control at 500 g/ha ([1]; application rate 500 g/Ha): 0%; pest or weed control at 500 g/ha ([2]; application rate 500 g/Ha): 30%; pest or weed control at 500 g/ha ([3]; application rate 500 g/Ha): 10%; pest or weed control at 500 g/ha ([4]; application rate 500 g/Ha): 10%; pest or weed control at 500 g/ha (Eleusine indica (ELEIN); application rate 500 g/Ha): 20%; pest or weed control at 500 g/ha ([5]; application rate 500 g/Ha): 40%; pest or weed control at 500 g/ha ([6]; application rate 500 g/Ha): 0%; pest or weed control at 500 g/ha (Lolium perenne (LOLPE); application rate 500 g/Ha): 10%; pest or weed control at 500 g/ha (Setaria faberi (SETFA); application rate 500 g/Ha): 0% |
| Cc1cccc2cc[n+](CC(=O)O)nc12 [Compound A59] | 30 | 60 | 20 | 20 | 10 | 20 | 10 | 10 | 20 | – |
| COC(=O)c1cccc2cc[n+](CCS(=O)(=O)[O-])nc12 [Compound A109, 2-(8-methoxycarbonylcinnolin-2-ium-2-yl)ethanesulfonate] | – | – | – | – | – | – | – | – | – | pest or weed control at 500 g/ha ([1]; application rate 500 g/Ha): 40%; pest or weed control at 500 g/ha ([2]; application rate 500 g/Ha): 20%; pest or weed control at 500 g/ha ([3]; application rate 500 g/Ha): 10%; pest or weed control at 500 g/ha ([4]; application rate 500 g/Ha): 30%; pest or weed control at 500 g/ha (Eleusine indica (ELEIN); application rate 500 g/Ha): 10%; pest or weed control at 500 g/ha ([5]; application rate 500 g/Ha): 30%; pest or weed control at 500 g/ha ([6]; application rate 500 g/Ha): 10%; pest or weed control at 500 g/ha (Lolium perenne (LOLPE); application rate 500 g/Ha): 10%; pest or weed control at 500 g/ha (Setaria faberi (SETFA); application rate 500 g/Ha): 10% |
| CCOP(=O)(CC[n+]1ccc2ccccc2n1)OCC.[Br-] [Compound A99] | – | – | – | – | – | – | – | – | – | Control of weed species AMAPA after post-emergence application (100=total damage to plant; 0=no damage to plant) ([1]; application rate 500 g/Ha): 10; Control of weed species CHEAL after post-emergence application (100=total damage to plant; 0=no damage to plant) ([2]; application rate 500 g/Ha): 20; Control of weed species DIGSA after post-emergence application (100=total damage to plant; 0=no damage to plant) ([3]; application rate 500 g/Ha): 50; Control of weed species ECHCG after post-emergence application (100=total damage to plant; 0=no damage to plant) ([4]; application rate 500 g/Ha): 40; Control of weed species ELEIN after post-emergence application (100=total damage to plant; 0=no damage to plant) (Eleusine indica (ELEIN); application rate 500 g/Ha): 30; Control of weed species EPHHL after post-emergence application (100=total damage to plant; 0=no damage to plant) ([5]; application rate 500 g/Ha): 40; Control of weed species IPOHE after post-emergence application (100=total damage to plant; 0=no damage to plant) ([6]; application rate 500 g/Ha): 10; Control of weed species LOLPE after post-emergence application (100=total damage to plant; 0=no damage to plant) (Lolium perenne (LOLPE); application rate 500 g/Ha): 20; Control of weed species SETFA after post-emergence application (100=total damage to plant; 0=no damage to plant) (Setaria faberi (SETFA); application rate 500 g/Ha): 50 |
| CN(C)S(=O)(=O)[N-]C(=O)C[n+]1ccc2ccccc2n1 [Compound A21, (2-cinnolin-2-ium-2-ylacetyl)-(dimethylsulfamoyl)azanide] | 10 | 50 | 10 | 30 | 0 | 70 | 20 | 0 | 0 | – |
| O=S(=O)([O-])CCC[n+]1cc(C(Cl)Cl)c2ccccc2n1 [Compound A39, 3-[4-(dichloromethyl)cinnolin-2-ium-2-yl]propane-1-sulfonate] | 10 | 20 | 10 | 10 | 10 | 40 | 30 | 0 | 0 | – |
